Assay: xn = mol fraction of the nth substance listed
Conditions: 100 kPa, Liquid; for viscosity: Capillary tube (Ostwald / Ubbelohde) method; for mass density: Vibrating tube method

CCCCCCCC(=O)OCC [ethyl octanoate] + CCCCCCCCCCCCCCCC
Conditions | mass density [kg/m3] | viscosity [mPa·s]
298.15 K, x2 = 0 | 862.64 | 1.428
298.15 K, x2 = 0.1 | 848.72 | 1.539
298.15 K, x2 = 0.2 | 836.2 | 1.651
298.15 K, x2 = 0.3 | 824.94 | 1.776
298.15 K, x2 = 0.4 | 814.77 | 1.916
298.15 K, x2 = 0.4999 | 805.52 | 2.065
298.15 K, x2 = 0.6 | 797.09 | 2.229
298.15 K, x2 = 0.7 | 789.38 | 2.408
298.15 K, x2 = 0.8 | 782.33 | 2.608
298.15 K, x2 = 0.9 | 775.88 | 2.84
303.15 K, x2 = 0 | 858.34 | 1.313
303.15 K, x2 = 0.1 | 844.55 | 1.407
303.15 K, x2 = 0.2 | 832.14 | 1.513
303.15 K, x2 = 0.3 | 820.97 | 1.623
303.15 K, x2 = 0.4 | 810.9 | 1.744
303.15 K, x2 = 0.4999 | 801.74 | 1.875
303.15 K, x2 = 0.6 | 793.39 | 2.019
303.15 K, x2 = 0.7 | 785.75 | 2.175
303.15 K, x2 = 0.8 | 778.76 | 2.348
303.15 K, x2 = 0.9 | 772.36 | 2.543
308.15 K, x2 = 0 | 854.04 | 1.211
308.15 K, x2 = 0.1 | 840.37 | 1.296
308.15 K, x2 = 0.2 | 828.07 | 1.387
308.15 K, x2 = 0.3 | 817.01 | 1.49
308.15 K, x2 = 0.4 | 807.03 | 1.596
308.15 K, x2 = 0.4999 | 797.95 | 1.712
308.15 K, x2 = 0.6 | 789.68 | 1.837
308.15 K, x2 = 0.7 | 782.11 | 1.974
308.15 K, x2 = 0.8 | 775.18 | 2.124
308.15 K, x2 = 0.9 | 768.84 | 2.291
313.15 K, x2 = 0 | 849.72 | 1.121
313.15 K, x2 = 0.1 | 836.18 | 1.197
313.15 K, x2 = 0.2 | 824 | 1.279
313.15 K, x2 = 0.3 | 813.04 | 1.371
313.15 K, x2 = 0.4 | 803.16 | 1.467
313.15 K, x2 = 0.4999 | 794.16 | 1.57
313.15 K, x2 = 0.6 | 785.97 | 1.68
313.15 K, x2 = 0.7 | 778.47 | 1.801
313.15 K, x2 = 0.8 | 771.61 | 1.933
313.15 K, x2 = 0.9 | 765.33 | 2.083
318.15 K, x2 = 0 | 845.39 | 1.042
318.15 K, x2 = 0.1 | 831.98 | 1.11
318.15 K, x2 = 0.2 | 819.92 | 1.185
318.15 K, x2 = 0.3 | 809.06 | 1.267
318.15 K, x2 = 0.4 | 799.27 | 1.351
318.15 K, x2 = 0.4999 | 790.37 | 1.444
318.15 K, x2 = 0.6 | 782.25 | 1.543
318.15 K, x2 = 0.7 | 774.83 | 1.65
318.15 K, x2 = 0.8 | 768.04 | 1.766
318.15 K, x2 = 0.9 | 761.81 | 1.897
323.15 K, x2 = 0 | 841.06 | 0.971
323.15 K, x2 = 0.1 | 827.77 | 1.034
323.15 K, x2 = 0.2 | 815.83 | 1.101
323.15 K, x2 = 0.3 | 805.08 | 1.172
323.15 K, x2 = 0.4 | 795.39 | 1.251
323.15 K, x2 = 0.4999 | 786.56 | 1.334
323.15 K, x2 = 0.6 | 778.53 | 1.422
323.15 K, x2 = 0.7 | 771.18 | 1.517
323.15 K, x2 = 0.8 | 764.46 | 1.62
323.15 K, x2 = 0.9 | 758.3 | 1.736
